# US20220213030A1, “AMINOGUANIDINE HYDRAZONES AS RETROMER STABILIZERS USEFUL FOR TREATING NEUROLOGICAL DISEASES” (OSPEDALE SAN RAFFAELE SRL, priority 2019, published 2022)
# Assays:
# VPS35 = VPS35 (Mus musculus, UniProt Q9EQH3+Q9QZ88); test: VPS35 western blot in spinal cord extracts of G93A mice; format: in vivo; conditions: 10 mg/kg, day 100
# Procedure: Lumbar spinal cords were dissected from saline perfused mice and rapidly homogenized in the following lysis buffer: Tris-HCl 10 mM pH 8, EDTA pH 8 1 mM, NaCl 100 mM, NP40 1% and protease inhibitor cocktail (Sigma). Protein extracts were obtained using a tight-fitting glass Potter tissue grinder (1 ml; Wheaton) and then sonicated at a frequency of 20 kHz (10 times-1s). Protein lysates from cells cultures were obtained from plates receiving PBS1× washing and subsequently the lysis buffer followed by sonication. Protein concentrations were measured by BCA protein assay kit (Thermofisher) according to the manufacturer's recommendations. Ten μg of protein extract was loaded on 10% Mini-PROTEAN TGX Stain-Free precast gels for PAGE (Bio-Rad). Gel electrophoresis was performed at 100 V for 2 hours. Gels were transferred on Immobilon®-P PVDF membrane according to the manufacturer's instructions (Millipore). Blots were blocked in 5% BSA in Tris buffered saline plus 0.1% Tween-20 (TBS-T) for 1 hour before receiving primary antibodies: goat α-VPS35 1:800 (ab10099, Abcam); rabbit α-VPS26b 1:1000 (15915-1-AP, ProteinTech); rabbit α-VPS29 1:1000 (ab236796 Abcam); mouse α-βActin 1:25000 (Sigma); mouse α-Golgin97 1:1000 (Invitrogen); mouse α-Ubiquitin 1:500 (Merk) overnight at 4° C. on shaker. […] Quantifications were done using the Image Lab 6.0.1 software (Bio-Rad).
# LC3 = test: pHfluorin-LC3 autophagy assay in Neuro2a clone 7B11; format: cell-based, mouse; conditions: 48 hours
# Procedure: Besides increasing the functionality of lysosomes we hypothesised that compound 2a could also enhance the autophagy system. Therefore we used a pHfluorin-LC3-based assay to monitor the autophagy process in living Neuro2a cells. We have established in our laboratory a Neuro2a stable cell clone (7B11) that expresses the Microtubule-associated protein 1A/1B-light chain 3 (LC3) coupled with the ph-sensitive GFP/phlourin.
# Neuro2a-7B11 cells were incubated with increasing concentrations of compound 2a (0.1-100 μM) as well as with the control molecules Bafilomycin Al and Torin-1. After 48 hours the GFP/phluorin signal, which is ph-sensitive, was measured by flow cytometry and fold changes calculated over untreated cells.
# Autophagy assay were done using a stable Neuro2a cell clone expressing the pHluorin-mKate2-tagged human LC3 plasmids, Cell clones were generated according our published methods (Mazzocchi 2016). Upon transfection, cells were selected by 400 μg/mL G418 Disulfate Salt Solution (Sigma-Aldrich, St. Louis, Mo.) and further cloned by limiting dilution. […] Neuro2a 7B11 cells were treated with Compound 2a (0.1-100 μM) for 48 hours then MFI levels of the pHfluorin were measured in living cells by flow cytometry.
# Sortilin = Sortilin MFI in MNs of G93A mice; format: in vivo, mouse; conditions: 10 mg/kg, day 100
# Text: We next assayed retromer proteins labelling sections of mice sacrificed at day 100 for VPS35 and NeuN. […] Similarly, we observed that VPS26 levels were increased in G93A mice receiving compound 2a (FIG. 11B). We further corroborated our experimental finding observing that compound 2a increased retromer functionality. The cation-independent mannose 6-phosphate receptor (CI-MPR) is a cargo (Arighi et al., 2004) of the retromer complex that is unstable in VPS26 knockout cells (Seaman 2004). We observed a substantial reduction of CI-MPR MFI levels in MNs of vehicle-treated G93A mice when compared with WT litters (FIG. 11C). […]
# Fluorescence intensity levels of VPS35, VPS26, Sortilin, CTSD and Ubiquitin were calculated using NHI-Image J software (US National Institutes of Health) according to the following protocol: stacks of confocal images were used to generate the maximal projections (Las-X) and then post-processed by NHI-Image J to crop single NeuN^+ MNs from the ventral horn of the spinal cord. We next performed background (calculated on adjacent slices only receiving secondary antibodies) subtraction for each channel, before applying the NHI-Image J mean filter (with radius 2.0 pixels) to calculate mean NeuN fluorescence levels in individual MN. […] On this selected ROI, we calculated mean fluoresce levels (MFI) of each protein.
# [1] = tested on: Neuro2a cells transfected with G93A plasmids; test: Cell survival (CCK8) of Neuro2a transfected with G93A plasmids; format: cell-based, mouse; conditions: 10 μM
# Text: Pathological alteration of the Golgi apparatus, such as its fragmentation, has been described in many neurodegenerative disorders including ALS. Neuro2a cells transfected with plasmids encoding the G93A mutant form of the SOD1 show alteration of the Golgi transport (Soo, Halloran et al. 2015). Along the same lines, Golgi fragmentation precedes neuromuscular denervation and axon retraction in ALS mice (van Dis, Kuijpers et al. 2014). We transfected Neuro2a cells with plasmids encoding the G93A mutant form of the human SOD1 gene (hereafter G93A) in presence or in absence of compound 2a (10 μM). Cells were harvested after 48 hours, labelled for Golgin-97 and scored for the distribution of trans-Golgi. […] Of note, the fragmentation of Golgi in cells receiving G93A plasmids was not depending on Golgin97 expression levels (FIG. 3A). We speculated that Golgi fragmentation may exacerbate cell death in this cell line. Therefore, we assayed cell survival of Neuro2a transfected with G93A plasmids. Accordingly, cells were transfected with G93A plasmids or with a control plasmid encoding the LacZ. […] Rates of cell survival were similar among controls—i.e. cells receiving LacZ plasmids or compound 2a—when compared with untreated cells. On the other hand, the over-expression of G93A plasmids affected Neuro2a cell survival. […]
structure (smiles),measurement,setting,value
"N=C(N)NN=Cc1cccc(C=NNC(=N)N)c1 [Compound 2a, 1,3-Bis-amino guanidine phenyl hydrazone]",VPS35 levels in SC extracts (WB),VPS35,increase VPS35 and VPS26b levels
same,GFP/phluorin signals (fold changes over untreated cells),LC3; 0.1 and 1μM,did not change
same,GFP/phluorin fluorescence levels (fold changes over untreated cells),LC3; 10 and 100 μM,significant reduction of fluorescence levels
same,Sortilin MFI levels,Sortilin,significantly increased Sortilin levels
same,cell survival of G93A-transfected cells,[1],significantly reverted this phenotype
same,cell survival of cells transfected with G93A and Sh56 (VPS35 RNAi) plasmids,[1]; VPS35 knock down,substantially affected the capability of compound 2a to revert this phenotype
